The subject of assay [1] is B. henselae. The experiment in a line: Cell-free, liquid culture MBC assay. It counts as cell-based, Bartonella henselae. Particulars: 96 hrs, plated on blood agar. The protocol:
(§1) The B. henselae strains used were San Antonio 2, 267HO04, a human clinical isolate and B. vinsonii subsp. berkhoffii. Both the bacteria were initially grown on tryptic soy agar (TSA) supplemented with 5% defibrinated sheep blood plates that were either pre-made (Remel, R01198) or homemade, in a humidified atmosphere at 37° C. with 5% CO2 for 7 days. For the preparation of liquid cultures, an individual well-grown colony from the plate was resuspended in 15 ml Falcon tubes containing 3 mL of either Schneider's insect media supplemented with 10% FBS, or Grace's insect media (Gibco, 11605-094) supplemented with 10% FBS, or BAPGM serum-free liquid media. The cultures grew for 7 more days in the atmosphere as above without shaking. The number of viable bacteria was determined by either plating serial dilutions of the culture on plates for CFU or by live/dead staining. Before every experiment, bacteria were mixed well and passed through 22-gauge needle to break large clumps of bacteria.
(§2) Briefly, the bacterial culture that was treated with therapeutic agents for 96 hrs was collected into a 1.5 ml microcentrifuge tubes and centrifuged at 7000 rpm for 10 min. The supernatant was removed, and the bacterial pellet was washed with 1×PBS twice. The bacterial pellet was then resuspended in 100 μL of 1×PBS, plated onto blood agar plates and incubated at 37° C. with 5% CO2 for about 14 days. This assay was repeated three times with all the 6 different antibiotics (azlocillin, azithromycin, ceftriaxone, doxycycline, gentamicin and ampicillin) and at different concentrations.
(§3) Therapeutic agent stocks were prepared in the following solvents: 10 mg/ml of ceftriaxone (USP), doxycycline (Fisher scientific, D9891-1G), gentamicin (Fisher scientific, 1405-41-0), ampicillin (Fisher scientific, 69-52-3) and azlocillin (Flightpath) in sterile cell culture grade water, whereas 5 mg/ml of azithromycin (Sigma, PZ0007-5MG) was dissolved in sterile cell culture grade DMSO. Antibiotics were then aliquoted and stored at either −80° C. or −20° C. until further use. On the day of assay, these stock concentrations were diluted to 1 mg/ml and 100 μg/ml in the respected bacterial culture media for MIC and cell-free, liquid culture MBC assays. For the DH82 cell-based MBC assay, antibiotics were diluted in EMEM media supplemented with 15% heat inactivated FBS.
For this assay, both B. henselae and B. vinsonii were grown in Grace's insect media and were tested against all of the 6 antibiotics (ceftriaxone, doxycycline, gentamicin, azithromycin, azlocillin, ampicillin).

The subject of assay [2] is B. vinsonii. Briefly: Cell-free, liquid culture MBC assay. It counts as cell-based, B. vinsonii subsp. berkhoffii. Particulars: 96 hrs, plated on blood agar. The method, then: as §1, §2, §3
For this assay, both B. henselae and B. vinsonii were grown in Grace's insect media and were tested against all of the 6 antibiotics (ceftriaxone, doxycycline, gentamicin, azithromycin, azlocillin, ampicillin). […] However, ceftriaxone, gentamicin, azithromycin, and azlocillin were all bactericidal and completely eliminated the growth at concentrations below 10 µg/ml. Table 2 provides comparison of MBCs for B. henselae and B. vinsonii strains in cell-free liquid culture medium determined by incubating the bacteria with antibiotics in a 96-well plate and plating on tryptic soy agar supplemented with 5% sheep blood. Additionally, MBC for B. henselae determined by DH82 cell-based assay (right column) is provided.

Assay [3] has as its system intracellular B. henselae in DH82 cells. The experiment in a line: DH82 cell-based MBC assay (coculture). Also noted: species or system Bartonella henselae (canine DH82 cells). Particulars: for MBC: B. henselae, DH82 cell-based assay, 96 hours; for effect of individual therapeutic agent on B. henselae growth: DH82 cell-based system, 16 μg/ml, agents used individually. The protocol: DH82 are a canine cell line having a macrophage-like morphology. Cells were initially cultured in T75-Flasks (Corning, 430641U) until confluency was reached and were split at a ratio of 1:4 for every 2-3 days. Cells were then seeded into either 24-well cell culture plates (Corning, 3526) for coculture assay or 8-well chamber slides (Millipore #PEGGS0816) for immunofluorescence assays. A total of 50,000 cells were seeded into each well of a 24-well plate or per chamber of an 8-well chamber slide with EMEM with 15% FBS and incubated for 24-48 hours before infections.
as §3
Bacteria (B. henselae) that were grown in Grace's insect media, were centrifuged at 7000 rpm for 10 min. The supernatant was removed and washed with 1×PBS for three times. After the washes, pellet was resuspended in EMEM media supplemented with 15% heat inactivated FBS. This bacterial suspension was then added to DH82 cells at a multiplicity of infection (MOI) of 1:50 and incubated for 2 hours. After 2 hours, unbound bacteria were removed by washing the cells with only EMEM media 3 times each 15 min wash. Cells were then incubated with EMEM+15% FBS media at 37° C. with 5% CO2 for 48 hours.
After 48 hrs of incubation, the media was removed from the cells and the therapeutic agents that were diluted in EMEM+15% FBS was added. Each therapeutic agent was diluted at 11 different concentrations (16, 8, 4, 2, 1, 0.5, 0.25, 0.125, 0.062, 0.031, 0.0156 μg/ml), as described above and incubated for 96 hours. […] The bactericidal activity of the therapeutic agents were then evaluated by plating the lysed cells on blood agar plates. Briefly, infected DH82 cells were initially washed for 30 min twice to remove the antibiotics that were added. Later, cells were osmotically lysed by adding 1 ml of sterile ice-cold distilled water and incubated for 5 min on ice. The lysed cells were then plated onto blood agar plates and incubated at 37° C. with 5% CO2 for about 10 days to evaluate the growth of viable B. henselae. This experiment was conducted in duplicates and repeated twice with all 6 antibiotics including 11 different concentrations. The untreated infected cells were used as a positive control and untreated uninfected cells served as a negative control. The CFU counts are presented as average±standard deviation.
To evaluate the bactericidal activity and to determine if these antibiotics could penetrate the eukaryotic […], a new DH82 cell-based coculture system was utilized. […] Uninfected cells stained with primary rabbit B. henselaehyperimmunized polyclonal (primary) and goat anti-rabbit IgG Alexa fluor 594 (secondary) antibodies were used as a negative control. As an isotype control, DH82 cells infected with B. henselae and incubated with primary rabbit IgG were used.

Setting [4] is: Bartonella henselae, read-out: MBC.

In brackets after ≈: the same amount, converted by molar mass. Where two headings read alike, the source gives them in different places.

`CC[C@H]1OC(=O)[C@H](C)[C@@H](O[C@H]2C[C@@](C)(OC)[C@@H](O)[C@H](C)O2)[C@H](C)[C@@H](O[C@@H]2O[C@H](C)C[C@H](N(C)C)[C@H]2O)[C@](C)(O)C[C@@H](C)CN(C)[C@H](C)[C@@H](O)[C@]1(C)O` [Azithromycin, azithromycin]: the MBC is 5 to 10 µg/mL (≈ 6.68 to 13.4 µM) in assay [1] (setting [4]), 2 to 5 µg/mL (≈ 2.67 to 6.68 µM) in assay [2] (read-out: MBC) and more than 16 µg/mL in assay [3] (setting [4]). Moreover, the “effect of individual therapeutic agent on B. henselae growth” value in assay [3] is reported as “showed reduced bacterial growth but were unable to completely inhibit the growth”.

Consider `CC1(C)S[C@@H]2[C@H](NC(=O)[C@H](NC(=O)N3CCNC3=O)c3ccccc3)C(=O)N2[C@H]1C(=O)O` [Azlocillin, azlocillin], for which the values for the MBC in assay [1] (setting [4]), in assay [2] (read-out: MBC) and in assay [3] (setting [4]) were 1 to 2 µg/mL (≈ 2.17 to 4.33 µM), 0.25 to 0.5 µg/mL (≈ 0.542 to 1.08 µM) and more than 16 µg/mL, respectively. Also, the “effect of individual therapeutic agent on B. henselae growth” value in assay [3] is “showed reduced bacterial growth but were unable to completely inhibit the growth”.

In the case of `CO/N=C(\C(=O)N[C@@H]1C(=O)N2C(C(=O)O)=C(CSc3nc(=O)c(=O)[nH]n3C)CS[C@H]12)c1csc(N)n1` [Ceftriaxone, ceftriaxone], the MBC in assay [1] (setting [4]) was 2 to 4 µg/mL (≈ 3.61 to 7.21 µM); in assay [2] (read-out: MBC) it was 0.5 to 1 µg/mL (≈ 0.902 to 1.8 µM); in assay [3] (setting [4]), more than 16 µg/mL.

As to gentamicin, the MBC in assay [1] is 2.0 to 4.0 µg/mL; in assay [2], 4.0 to 8.0 µg/mL; in assay [3], more than 16 µg/mL.

For orientation: MBC means the lowest tested concentration that kills the bacteria rather than only halting them.
